Among the data in US8389526B2, “3-heteroarylmethyl-imidazo[1,2-b]pyridazin-6-yl derivatives” (Novartis AG, priority 2009, dated 2013) are IC50 values, retold here.

The subject of experiment [1] is MET-amplified gastric cancer cell line GTL-16. As to the kind of experiment: GTL-16 proliferation assay (MTS). Type of experiment: cell-based. The settings on record: Homo sapiens, GTL-16 cells, 72 h incubation. How it is done:
(§1) C-Met Dependent Cellular Assays
(§2) A number of compounds of the present invention were assayed in a c-Met dependent proliferation and phosphorylation assay as follows.
GTL-16 proliferation assay: the MET-amplified gastric cancer cell line GTL-16 was grown under standard cell culture conditions in DMEM [Dulbecco's Modified Eagle Medium] (high glucose) supplemented with 10% heat-inactivated fetal calf serum and 2 mM L-glutamine. For proliferation assays, cells were seeded at 3000 per well in 96-well-plates. 24 h later, a 10-point dilution series of each compound (3-fold steps, ranging from […]) was prepared in DMSO. Compound were then diluted 1000-fold in growth media in two steps and added to cells in triplicates, resulting in a final volume of […] per well and maximal final compound concentrations of […]. A DMSO-only control was included. Cells were incubated for 72 h and the amount of viable cells was then measured by adding […] of MTS reagent (CellTiter 96® AQueous Non-Radioactive Cell Proliferation Assay, Promega), further incubation for 30′, and reading the optical density at 490 nm.

The next experiment concerns the target T1, c-Met (Homo sapiens, UniProt P08581).
T1 construct: adapted to measure the phosphorylation of endogenous cellular proteins in cell lysates; endogenous in cells; host or cells: GTL-16
As to the kind of experiment: GTL-16 c-Met autophosphorylation measured by AlphaScreen detection. The settings on record: GTL-16 cells, 1 h incubation, AlphaScreen p-c-Met; read-out: GTL-16 IC50 c-Met phosphorylation. Type of experiment: cell-based. How it is done: as §1, §2
GTL-16 c-Met autophosphorylation measured by AlphaScreen® detection: the human MET-amplified gastric cancer cells GTL-16 were plated in 384-well plates at a density of 10′000 cells in 20 ul complete growth medium (DMEM high glucose supplemented with 10% (v/v) heat inactivated fetal calf serum and of 1 mM sodium pyruvate) and were incubated at […]/5% CO2/95% humidity for 20 h. The cells were washed and the 30 ul assay buffer (DMEM high glucose, 1 mM sodium pyruvate, 0.1% bovine serum albumine) was added. Compounds were diluted in 384-well compound plates to obtain 8-point serial dilutions for 40 test compounds in 90% DMSO, as well as a reference compound plus 16 high- and 16 low (inhibited) controls. These compound plates were prediluted 1:200 in assay buffer into a compound predilution plate and 10 ul of prediluted compound solution were transferred to the cell plate using a 384-well pipettor, resulting in a final DMSO concentration of 0.11%. Cells were incubated for 1 h at […]/5% CO2/95% humidity. The supernatant was removed, the cells were lysed in 25 ul of RIPA [radio immuno precipitation assay] lysis buffer supplemented with 2 mM sodium vanadate and a protease inhibitor cocktail, and cell plates were stored at −80° C.
For detection of p-c-Met, an AlphaScreen®-based assay was used. AlphaScreen® (Amplified Luminescent Proximity Homogeneous Assay, ALPHA, Perkin Elmer, U.S.A) is a non-radioactive bead-based proximity assay technology to study biomolecular interactions in a homogenous microtiter plate format. This technique has been adapted to measure the phosphorylation of endogenous cellular proteins in cell lysates by the use of specific antibody pairs against the total protein and a phospho-specific epitope. 5 ul of cell lysate was transferred to 384-well low volume Proxiplates for detection using a 384-well pipettor. First, 5 ul of a premix of an anti-c-Met antibody (0.25 ug/ml f.c.), a biotinylated PY20 antibody (phosphotyrosine antibody, 0.05 ug/ml f.c.) and AlphaScreen® Protein A-coupled acceptor beads (10 ug/ml f.c.) in RIPA buffer supplemented with 0.25% (v/w) TOP BLOCK, 2 mM sodium vanadate, and a protease inhibitor cocktail and was added, the plate was sealed, and incubated on a plate shaker for 2 hours at room temperature. Second, 2 ul of dilution buffer containing AlphaScreen® Streptavidin-coated donor beads (10 ug/ml f.c.) in RIPA buffer was added, and the plate was incubated on plate shaker as above for a further 2 hours. The plate was read on an AlphaScreen® compatible plate reader, using standard AlphaScreen® settings.
(Alpha assays give light when donor and acceptor beads are brought close together.)

Experiment [2] has as its target T2, c-Met receptor tyrosine kinase, GST-c-Met(969-1390) (Homo sapiens, UniProt P08581).
T2 construct: made in house
The experiment in a line: EPK c-Met profiling assay (LanthaScreen TR-FRET kinase assay). In kind it is biochemical. The settings on record: 2 μM ATP, 0.3 nM enzyme, 60 minutes at room temperature. How it is done:
A number of compounds of the present invention were assayed in an antibody based kinase phosphorylation assay as follows.
Epk c-Met Profiling Assay:
The EPK kinase assay for c-Met receptor tyrosine kinase was developed, using the purified recombinant GST-fusion protein, containing the cytoplasmic domain of the enzyme. GST-c-Met(969-1390) was purified by affinity chromatography.
The kinase assay is based on the LanthaScreen™ technology. LanthaScreen™ is the detection of Time-Resolved Fluorescence Resonance Energy Transfer (TR-FRET) using lanthanide chelates to measure interactions between various binding partners. In a TR-FRET kinase assay, a long-lifetime lanthanide donor species is conjugated to an antibody that specifically binds to a phosphorylated product of a kinase reaction that is labeled with a suitable acceptor fluorophore. This antibody-mediated interaction brings the lanthanide donor and the acceptor into proximity such that resonance energy transfer can take place, resulting in a detectible increase in the FRET signal.
The kinase reactions were performed in 384 well microtiter plates in a total reaction volume of 9.05 μL. The assay plates were prepared with 0.05 μL per well of test compound in the appropriate test concentration, as described under “preparation of compound dilutions”. The reactions were started by combining 4.5 μL of ATP solution with 4.5 μL of enzyme-substrate mix (consisting of kinase and substrate). The final concentrations in the kinase reactions were 35 mM Tris/HCl, 1 mM DTT, 0.025% Tween20, 10 μM sodium orthovanadate, 0.25% BSA, 0.6% DMSO, 10 mM MgCl2, 3 mM MnCl2, 2 μM ATP, 50 nM Fluorescein-PolyEAY, and 0.3 nM enzyme.
The reactions were incubated for 60 minutes at room temperature and stopped by adding 4.5 μL of stop buffer (50 mM EDTA, 0.04% NP40, 20 mM Tris/HCl).
Subsequently 4.5 μL of detection mix (50 mM Tris/HCl, 2 mM DTT, 0.05% Tween20, 20 μM sodium orthovanadate, 1% BSA, 1.72 μg/mL Tb-PY20 antibody) were added to the stopped reactions. After 30 minutes incubation at room temperature, the plates were measured in a BMG Pherastar fluorescence reader. The effect of compound on the enzymatic activity was in all assays obtained from the linear progress curves and determined from one reading (end point measurement).
Preparation of Compound Dilutions
Test compounds were dissolved in DMSO (10 mM) and transferred into 1.4 mL flat bottom or V-shaped Matrix tubes carrying a unique 2D matrix. The stock solutions were stored at −20° C. if not used immediately. For the test procedure the vials were defrosted and identified by a scanner whereby a working sheet was generated that guided the subsequent working steps.
Compound dilutions were made in 96 well plates. This format enabled the assay of maximally 40 individual test compounds at 8 concentrations (single points) including 4 reference compounds. The dilution protocol included the production of “pre-dilution plates”, “master plates” and “assay plates”.
Pre-dilution plates: 96 polypropylene well plates were used as pre-dilution plates. A total of 4 pre-dilution plates were prepared including 10 test compounds each on the plate positions A1-A10, one standard compound at A11 and one DMSO control at A12. All dilution steps were done on a HamiltonSTAR robot.
Master plates: 100 μL of individual compound dilutions including standard compound and controls of the 4 “pre-dilution plates” were transferred into a 384 “master plate” including the following concentrations 1′820, 564, 182, 54.6, 18.2, 5.46, 1.82 and 0.546 μM, respectively in 90% of DMSO.
Assay plates: Identical “assay plates” were then prepared by pipetting 50 nL each of compound dilutions of the “master plates” into 384-well “assay plates” by means of a HummingBird 384-channel dispenser. These plates were used directly for the assay which was performed in a total volume of 9.05 μL. […]

T1 sequence (P08581 25-1390): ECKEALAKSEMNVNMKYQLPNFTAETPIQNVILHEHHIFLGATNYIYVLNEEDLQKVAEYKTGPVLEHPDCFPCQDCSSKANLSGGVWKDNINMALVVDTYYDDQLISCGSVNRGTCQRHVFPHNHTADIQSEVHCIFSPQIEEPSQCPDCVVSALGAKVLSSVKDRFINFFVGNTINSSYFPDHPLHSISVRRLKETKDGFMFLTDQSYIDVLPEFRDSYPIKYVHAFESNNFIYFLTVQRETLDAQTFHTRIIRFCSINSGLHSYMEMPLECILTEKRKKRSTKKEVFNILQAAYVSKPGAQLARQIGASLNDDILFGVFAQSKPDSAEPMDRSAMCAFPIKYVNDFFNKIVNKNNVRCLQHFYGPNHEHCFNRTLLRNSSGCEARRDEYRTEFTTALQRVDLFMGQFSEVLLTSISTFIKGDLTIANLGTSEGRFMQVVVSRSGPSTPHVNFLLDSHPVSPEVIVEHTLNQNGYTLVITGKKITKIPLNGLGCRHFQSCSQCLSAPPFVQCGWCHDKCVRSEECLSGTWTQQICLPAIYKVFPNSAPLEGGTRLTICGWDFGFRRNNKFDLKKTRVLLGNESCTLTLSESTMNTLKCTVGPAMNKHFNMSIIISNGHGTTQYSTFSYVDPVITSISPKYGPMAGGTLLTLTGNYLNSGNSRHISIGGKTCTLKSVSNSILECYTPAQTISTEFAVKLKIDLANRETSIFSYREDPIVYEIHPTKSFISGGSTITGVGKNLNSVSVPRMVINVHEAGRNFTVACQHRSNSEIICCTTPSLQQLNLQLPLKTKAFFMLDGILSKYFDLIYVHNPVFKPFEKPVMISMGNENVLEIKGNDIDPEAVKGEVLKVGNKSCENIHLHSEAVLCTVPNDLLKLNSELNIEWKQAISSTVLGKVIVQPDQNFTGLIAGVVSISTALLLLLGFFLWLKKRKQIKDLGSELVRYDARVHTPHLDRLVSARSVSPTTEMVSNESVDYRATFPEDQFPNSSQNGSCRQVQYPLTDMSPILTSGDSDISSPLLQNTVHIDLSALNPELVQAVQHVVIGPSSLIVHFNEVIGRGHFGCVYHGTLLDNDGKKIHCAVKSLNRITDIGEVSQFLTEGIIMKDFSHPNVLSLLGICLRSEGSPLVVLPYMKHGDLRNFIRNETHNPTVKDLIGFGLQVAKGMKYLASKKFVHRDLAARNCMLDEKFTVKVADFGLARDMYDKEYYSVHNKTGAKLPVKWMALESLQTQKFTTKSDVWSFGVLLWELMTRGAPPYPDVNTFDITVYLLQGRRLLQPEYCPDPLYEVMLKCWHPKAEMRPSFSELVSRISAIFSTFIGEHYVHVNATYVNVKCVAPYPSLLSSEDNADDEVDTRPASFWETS
T2 sequence (P08581 969-1390): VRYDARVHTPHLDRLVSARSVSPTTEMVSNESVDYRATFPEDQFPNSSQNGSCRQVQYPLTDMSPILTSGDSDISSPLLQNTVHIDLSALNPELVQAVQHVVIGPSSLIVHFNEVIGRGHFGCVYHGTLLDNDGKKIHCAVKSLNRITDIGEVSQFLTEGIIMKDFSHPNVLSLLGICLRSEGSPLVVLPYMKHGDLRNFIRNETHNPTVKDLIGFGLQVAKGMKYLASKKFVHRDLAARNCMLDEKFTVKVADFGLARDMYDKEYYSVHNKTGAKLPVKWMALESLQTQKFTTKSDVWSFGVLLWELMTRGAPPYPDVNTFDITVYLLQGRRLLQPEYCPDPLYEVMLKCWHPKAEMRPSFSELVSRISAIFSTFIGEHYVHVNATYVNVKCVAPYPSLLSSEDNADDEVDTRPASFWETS

By IC50 is commonly meant the concentration that gives 50% inhibition. Turning to `CC(c1c(F)cc2ncccc2c1F)c1cnc2ccc(N3CCN(C(N)=O)CC3)nn12` (racemic) [Example 15, (rac)-4-{3-[1-(5,7-Difluoro-quinolin-6-yl)-ethyl]-imidazo[1,2-b]pyridazin-6-yl}-piperazine-1-carboxylic acid amide], the IC50 in experiment [1] is 0.018 µM; at c-Met, 0.0083 µM; in experiment [2], 0.0054 µM.

As for `CC(c1c(F)cc2ncccc2c1F)c1cnc2ccc(N3CCN(C(=O)C(F)(F)F)CC3)nn12` (racemic) [Example 17, (rac)-1-(4-{3-[1-(5,7-Difluoro-quinolin-6-yl)-ethyl]-imidazo[1,2-b]pyridazin-6-yl}-piperazin-1-yl)-2,2,2-trifluoro-ethanone], the IC50 in experiment [1] stood at 0.02 µM; on c-Met, 0.014 µM; in experiment [2] it was 0.024 µM.

Regarding `CC(c1c(F)cc2ncccc2c1F)c1cnc2ccc(N3CCN(C4CCCC4)C(=O)C3)nn12` (racemic) [Example 20, (rac)-4-{3-[1-(5,7-Difluoro-quinolin-6-yl)-ethyl]-imidazo[1,2-b]pyridazin-6-yl}-1-cyclopentylpiperazin-2-one], the IC50 came to 0.021 µM in experiment [1], 0.007 µM on c-Met and 0.027 µM in experiment [2].

Turning to `CC(c1c(F)cc2ncccc2c1F)c1cnc2ccc(N3CCN(C)C(=O)C3C)nn12` (racemic) [Example 21, (rac)-4-{3-[1-(5,7-Difluoro-quinolin-6-yl)-ethyl]-imidazo[1,2-b]pyridazin-6-yl}-1,3-dimethylpiperazin-2-one], the IC50 in experiment [1] was 0.009 µM; on c-Met, less than 0.003 µM; in experiment [2], 0.019 µM.

As for `CC(c1c(F)cc2ncccc2c1F)c1cnc2ccc(N3CCN(c4ccccc4)C(=O)C3)nn12` (racemic) [Example 22, (rac)-4-{3-[1-(5,7-Difluoro-quinolin-6-yl)-ethyl]-imidazo[1,2-b]pyridazin-6-yl}-1-phenylpiperazin-2-one], the IC50 in experiment [1] was found to be 0.015 µM; on c-Met, 0.006 µM; in experiment [2], 0.014 µM.

With `CC(c1c(F)cc2ncccc2c1F)c1cnc2ccc(N3CC(=O)NCC3C)nn12` (racemic) [Example 23, (rac)-4-{3-[1-(5,7-Difluoro-quinolin-6-yl)-ethyl]-imidazo[1,2-b]pyridazin-6-yl}-5-methylpiperazin-2-one], the values for the IC50 (in experiment [1]; at c-Met; in experiment [2]) were 0.0085 µM, 0.0033 µM and 0.015 µM, respectively.

`CC1CN(c2ccc3ncc(C(C)c4c(F)cc5ncccc5c4F)n3n2)CC(=O)N1` (racemic) [Example 24, (rac)-4-{3-[1-(5,7-Difluoro-quinolin-6-yl)-ethyl]-imidazo[1,2-b]pyridazin-6-yl}-6-methylpiperazin-2-one]: the 50% inhibitory concentration (IC50) is 0.0098 µM in experiment [1], 0.004 µM on c-Met and 0.004 µM in experiment [2].

As to `CC(c1c(F)cc2ncccc2c1F)c1cnc2ccc(N3CCN(c4ccccn4)C(=O)C3)nn12` (racemic) [Example 25, (rac)-4-{3-[1-(5,7-Difluoro-quinolin-6-yl)-ethyl]-imidazo[1,2-b]pyridazin-6-yl}-1-(pyridin-2-yl)piperazin-2-one], the IC50 was found to be 0.013 µM in experiment [1], 0.008 µM on c-Met and 0.015 µM in experiment [2].

Regarding `CC(c1cc2cnn(C)c2cc1F)c1cnc2ccc(N3CCNC(=O)C3)nn12` (racemic) [Example 27, (rac)-4-{3-[1-(6-Fluoro-1-methyl-1H-indazol-5-yl)-ethyl]-imidazo[1,2-b]pyridazin-6-yl}-piperazin-2-one], the results for the half-maximal inhibitory concentration (IC50) (in experiment [1]; on c-Met; in experiment [2]) were 0.173 µM, 0.003 µM and 0.073 µM, respectively.

Turning to `CC(c1cc2cccnc2cc1F)c1cnc2ccc(N3CCN(C)C(=O)C3)nn12` (racemic) [Example 40, (rac)-4-{3-[1-(7-Fluoro-quinolin-6-yl)-ethyl]-imidazo[1,2-b]pyridazin-6-yl}-1-methyl-piperazin-2-one], the IC50 is 0.147 µM in experiment [1], 0.011 µM on c-Met and 0.039 µM in experiment [2].

For `CC(c1cc2cccnc2cc1F)c1cnc2ccc(N3CCNC(=O)C3)nn12` (racemic) [Example 41, (rac)-4-{3-[1-(7-Fluoro-quinolin-6-yl)-ethyl]-imidazo[1,2-b]pyridazin-6-yl}-piperazin-2-one], the IC50 in experiment [1] is 0.049 µM; on c-Met it was less than 0.003 µM; in experiment [2], 0.023 µM.

`CC(=O)N1CCN(c2ccc3ncc(C(C)c4cc5cccnc5cc4F)n3n2)CC1` (racemic) [Example 42, (rac)-1-(4-{3-[1-(7-Fluoro-quinolin-6-yl)-ethyl]-imidazo[1,2-b]pyridazin-6-yl}-piperazin-1-yl)ethanone]: the IC50 was 0.193 µM in experiment [1], 0.039 µM at c-Met and 0.049 µM in experiment [2].
